According to patent publication EP3597653A1, “CYCLIC INHIBITORS OF HEPATITIS B VIRUS” (IRBM S.P.A., priority 2018, dated 2020):

Each molecule was assayed on HBV (assay: HBV inhibition assay in HepAD38 cells (extracellular HBV DNA by direct qPCR)). Conditions: Hepatitis B virus, 8-point dose-response curve, 96 hours, read-out: HBV inh EC50.
Format: cell-based
Text: HepAD38 cell line (Ladner et al., Antimicrob Agents Chemother, 1997, 41, 1715-20) was used for HBV inhibition assays. HepAD38 is a subclone, derived from Hepatoblastoma cell line HepG2 (ATCC® Number: HB-8065™), that expresses HBV genome under the control of a tetracycline-responsive promoter in a TET-OFF system: addition of tetracycline suppresses HBV replication, while its removal switches on the process allowing HBV viral particles release in the cell supernatant. HepAD38 cell line is maintained in DMEM/F12, supplemented with 10% of fetal bovine serum, 1% of glutamine, 1% of penicillin/streptomycin, 0.4 mg/ml G418 and 0,3 ug/ml tetracycline. For the HBV inhibition assay, doxycycline-free medium is used in order to allow virion production.
HBV inhibition activity in vitro was performed in 96 multiwell plates. During the initial (primary) screening compounds were first tested in triplicates at concentrations of 0.1µM, 0.5µM amd 1µM. For selected compounds, an 8-point dose-response curve can be obtained using 1:2 serial dilutions (starting from 2.5 µM, 1.25µM or 0.4 µM, depending on the degree of inhibition observed during the primary screening). From the dose-response curves, half maximal effective concentration (EC50) can be calculated (see also below).
In more detail, compounds - typically dissolved in DMSO stock solutions - are diluted to 2x the final desired concentration in 100 µl of the above medium (without doxycycline) and plated in three replicates in the 96-well plates.
Simultaneously, HepAD38 cells - extensively pre-washed in tetracycline-free medium in order to induce HBV production - are suspended at 2*10^4 cells in 100 µl of tetracycline-free medium and added to each well of the plate, to yield a final assay volume of 200 µl DMSO - used for stock solutions and compounds dilutions - which is always present in the assays at a final concentration of 0.5%.
Plates are then incubated 96 hours at 37°C and then subjected to cell viability assay in order to define compounds cytotoxicity and to extracellular HBV quantification in order to evaluate antiviral activity of compounds. Cytotoxicity is assessed by a commercial fluorescence assay that measures the metabolic activity of cells, directly related to cell viability (Cell Titer Blue, Promega). Anti-HBV activity was evaluated by quantification of extracellular HBV DNA with direct qPCR. In particular, supernatant was collected and centrifuged for cell debris clarification, viral DNA was extracted from virions by addition of lysis buffer (1 mM 1,4-dithiothreitol, 0.2% sodium dodecyl sulphate) and incubated at 95°C for 10 min. Samples were then diluted 1:40 and real time PCR amplification was performed with SYBR green assay (Power SYBR™ Green PCR Master Mix-Thermo Fisher Scientific) and specific HBV primer (HBV-DF:5'-[…]-3' (SEQ ID No. 1), HBV-DR:5'-[…]-3' (SEQ ID No. 2)).
All HBV inhibition or antiviral activity data are typically reported in percent (%) relative to a non-treated reference sample. Excel and Graphpad Prism programs are typically used for data elaboration and EC50 calculation.

Row | SMILES | EC50 [nM]
1 | CC1Nc2ccc(C(=O)Nc3cc(F)c(F)c(F)c3)cc2S(=O)(=O)N1 (stereo not shown) [Example E21, 3-methyl-N-(3,4,5-trifluorophenyl)-3,4-dihydro-2H-benzo[e][1,2,4]thiadiazine-7-carboxamide 1,1-dioxide] | < 1000

Same assay, conditions: Hepatitis B virus, compound at 0.1 µM, 96 hours, relative to non-treated reference, read-out: Anti HBV Activity (conc µM)

Row | SMILES | inhibition at 0.1 µM [%]
2 | Cc1cc2c(cc1C(=O)Nc1cc(F)c(F)c(F)c1)S(=O)(=O)N([C@H]1CC[C@H](O)CC1)C(=O)N2 [Example E122, trans-2-(4-hydroxycyclohexyl)-6-methyl-3-oxo-N-(3,4,5-trifluorophenyl)-3,4-dihydro-2H-benzo[e][1,2,4]thiadiazine-7-carboxamide 1,1-dioxide] | > 50

Same assay, conditions: Hepatitis B virus, compound at 0.5 µM, 96 hours, relative to non-treated reference, read-out: Anti HBV Activity (conc µM)

Row | SMILES | inhibition at 0.5 µM [%]
3 | CN1C(C(F)(F)F)Nc2ccc(C(=O)Nc3cc(F)c(F)c(F)c3)cc2S1(=O)=O (stereo not shown) [Example E18, 2-methyl-3-(trifluoromethyl)-N-(3,4,5-trifluorophenyl)-3,4-dihydro-2H-benzo[e][1,2,4]thiadiazine-7-carboxamide1,1-dioxide] | < 50
4 | O=C(Nc1cc(F)c(F)c(F)c1)c1ccc2c(c1)S(=O)(=O)N([C@H]1CC[C@H](O)CC1)CN2 [Example E58, trans-2-(4-hydroxycyclohexyl)-N-(3,4,5-trifluorophenyl)-3,4-dihydro-2H-benzo[e][1,2,4]thiadiazine-7-carboxamide 1,1-dioxide] | < 50
5 | O=C(Nc1cc(F)c(F)c(F)c1)c1ccc2c(c1)S(=O)(=O)N([C@H]1CC[C@@H](O)CC1)CN2 [Example E59, cis-2-(4-hydroxycyclohexyl)-N-(3,4,5-trifluorophenyl)-3,4-dihydro-2H-benzo[e][1,2,4]thiadiazine-7-carboxamide 1,1-dioxide] | < 50
6 | O=C(Nc1cc(F)c(F)c(F)c1)c1ccc2c(c1)S(=O)(=O)NC([C@@H](O)CO)N2 (stereo partly drawn) [Example E26, 3-((R)-1,2-dihydroxyethyl)-N-(3,4,5-trifluorophenyl)-3,4-dihydro-2H-benzo[e][1,2,4]thiadiazine-7-carboxamide 1,1-dioxide] | > 50
7 | O=C(Nc1cc(F)c(F)c(F)c1)c1ccc2c(c1)S(=O)(=O)N([C@H]1CC[C@@H](O)CC1)C(=O)N2 [Example E87, cis-2-(4-hydroxycyclohexyl)-3-oxo-N-(3,4,5-trifluorophenyl)-3,4-dihydro-2H-benzo[e][1,2,4]thiadiazine-7-carboxamide 1,1-dioxide] | > 50
8 | O=C(Nc1cc(F)c(F)c(F)c1)c1ccc2c(c1)S(=O)(=O)N(O)CN2 [Example E5, 2-hydroxy-N-(3,4,5-trifluorophenyl)-3,4-dihydro-2H-benzo[e][1,2,4]thiadiazine-7-carboxamide 1,1-dioxide] | < 50
9 | O=C(Nc1cc(F)c(F)c(F)c1)c1ccc2c(c1)S(=O)(=O)NC1(CCNCC1)N2 [Example E14, N-(3,4,5-trifluorophenyl)-2H,4H-spiro[benzo[e][1,2,4]thiadiazine-3,4'-piperidine]-7-carboxamide 1,1-dioxide] | > 50
10 | O=C(Nc1cc(F)c(F)c(F)c1)c1ccc2c(c1)S(=O)(=O)N(C1CC(O)C1)C(=O)N2 (stereo not shown) [Example E86, 2-(3-hydroxycyclobutyl)-3-oxo-N-(3,4,5-trifluorophenyl)-3,4-dihydro-2H-benzo[e][1,2,4]thiadiazine-7-carboxamide 1,1-dioxide] | > 50

Same assay, conditions: Hepatitis B virus, compound at 1 µM, 96 hours, relative to non-treated reference, read-out: Anti HBV Activity (conc µM)

Row | SMILES | inhibition at 1 µM [%]
11 | O=C(Nc1cc(F)c(F)c(F)c1)c1ccc2c(c1)S(=O)(=O)N1CCCCC1CN2 (stereo not shown) [Example E101, N-(3,4,5-trifluorophenyl)-1,3,4,11,12,12a-hexahydro-2H-benzo[f]pyrido[1,2-b][1,2,5]thiadiazepine-8-carboxamide 6,6-dioxide] | > 50
12 | O=C(Nc1cc(F)c(F)c(F)c1)c1cc2c(cc1Br)NCNS2(=O)=O [Example E8, 6-bromo-N-(3,4,5-trifluorophenyl)-3,4-dihydro-2H-benzo[e][1,2,4]thiadiazine-7-carboxamide 1,1-dioxide] | > 50
13 | O=C(Nc1cc(F)c(F)c(F)c1)c1ccc2c(c1)S(=O)(=O)NC1(CCOCC1)N2 [Example E13, N-(3,4,5-trifluorophenyl)-2',3',5',6'-tetrahydro-2H,4H-spiro[benzo[e] [1,2,4]thiadiazine-3,4'-pyran]-7-carboxamide1,1-dioxide] | > 50
14 | O=C(Nc1cc(F)c(F)c(F)c1)c1ccc2c(c1)S(=O)(=O)N(C1CCNCC1)C(=O)N2 [Example E81, 3-oxo-2-(piperidin-4-yl)-N-(3,4,5-trifluorophenyl)-3,4-dihydro-2H-benzo[e][1,2,4]thiadiazine-7-carboxamide 1,1-dioxide] | > 50
15 | O=C(Nc1cc(F)c(F)c(F)c1)c1ccc2c(c1)S(=O)(=O)NC(c1cncs1)N2 (stereo not shown) [Example E40, 3-(thiazol-5-yl)-N-(3,4,5-trifluorophenyl)-3,4-dihydro-2H-benzo[e][1,2,4]thiadiazine-7-carboxamide 1,1-dioxide] | > 50
16 | O=C1Nc2ccc(C(=O)Nc3cc(F)c(F)c(F)c3)cc2S(=O)(=O)N1 [Example E75, 3-oxo-N-(3,4,5-trifluorophenyl)-3,4-dihydro-2H-benzo[e][1,2,4]thiadiazine-7-carboxamide 1,1-dioxide] | < 50
17 | O=C(Nc1cc(F)c(F)c(F)c1)c1ccc2c(c1)S(=O)(=O)N1CC(C1)O2 [Example E117, N-(3,4,5-trifluorophenyl)-3,4-dihydro-2,4-methanobenzo[b][1,4,5]oxathiazepine-8-carboxamide 1,1-dioxide] | < 50
18 | N#Cc1cc(NC(=O)c2ccc3c(c2)S(=O)(=O)NC=N3)ccc1F [Example E90, N-(3-cyano-4-fluorophenyl)-2H-benzo[e][1,2,4]thiadiazine-7-carboxamide 1,1-dioxide] | < 50
19 | O=C(Nc1cc(F)c(F)c(F)c1)c1ccc2c(c1)S(=O)(=O)NC(CO)CO2 (stereo not shown) [Example E135, 3-(hydroxymethyl)-N-(3,4,5-trifluorophenyl)-3,4-dihydro-2H-benzo[b][1,4,5]oxathiazepine-8-carboxamide 1,1-dioxide] | < 50
20 | O=C(Nc1cc(F)c(F)c(F)c1)c1ccc2c(c1)S(=O)(=O)NC(c1ccn[nH]1)N2 (stereo not shown) [Example E46, 3-(1H-pyrazol-5-yl)-N-(3,4,5-trifluorophenyl)-3,4-dihydro-2H-benzo[e][1,2,4]thiadiazine-7-carboxamide 1,1-dioxide] | > 50
21 | N#Cc1cc(NC(=O)c2ccc3c(c2)S(=O)(=O)NCN3)ccc1F [Example E91, N-(3-cyano-4-fluorophenyl)-3,4-dihydro-2H-benzo[e][1,2,4]thiadiazine-7-carboxamide 1,1-dioxide] | < 50
22 | O=C(Nc1cc(F)c(F)c(F)c1)c1ccc2c(c1)S(=O)(=O)NC(c1cnns1)N2 (stereo not shown) [Example E45, 3-(1,2,3-thiadiazol-5-yl)-N-(3,4,5-trifluorophenyl)-3,4-dihydro-2H-benzo[e][1,2,4]thiadiazine-7-carboxamide 1,1-dioxide] | > 50
23 | NC1=Nc2ccc(C(=O)Nc3cc(F)c(F)c(F)c3)cc2S(=O)(=O)N1 [Example E69, 3-amino-N-(3,4,5-trifluorophenyl)-2H-benzo[e][1,2,4]thiadiazine-7-carboxamide 1,1-dioxide] | < 50
24 | O=C(Nc1cc(F)c(F)c(F)c1)c1cc2c(cc1Cl)NC(c1nccs1)NS2(=O)=O (stereo not shown) [Example E36, 6-chloro-3-(thiazol-2-yl)-N-(3,4,5-trifluorophenyl)-3,4-dihydro-2H-benzo[e][1,2,4]thiadiazine-7-carboxamide 1,1-dioxide] | > 50

Same assay, conditions: compound at 1 µM, 96 hours, relative to non-treated reference

Row | SMILES | Anti HBV Activity (conc µM)
25 | CN1CCC(N2C(=O)Nc3ccc(C(=O)Nc4cc(F)c(F)c(F)c4)cc3S2(=O)=O)CC1 [Example E133, 2-(1-methylpiperidin-4-yl)-3-oxo-N-(3,4,5-trifluorophenyl)-3,4-dihydro-2H-benzo[e][1,2,4]thiadiazine-7-carboxamide 1,1-dioxide] | A (1) (HBV inhibition greater than 50% at the concentration indicated in the table)
